Experimental data: US7947728B1, “Indole and indazole analogs as glycogen synthase activators” (Hoffmann-La Roche Inc., priority 2009, dated 2011)

Tested on: glycogen synthase
Assay: Glycogen Synthase (GS) Assay
Assay type: biochemical
Settings: for EC50: compound concentration needed to give 50% maximum activation; for GS SC200: compound concentration needed to stimulate 200% of the enzyme activity
Experimental: The following tests were carried out in order to determine the activity of the compounds of formula (I).
Twelve μL per well of substrate solution containing glycogen (4.32 mg/′ml), 2.67 mM UDP-glucose, 21.6 mM phospho(enol)pyruvate and 2.7 mM NADH in 30 mM glycylglycine, pH 7.3 buffer was added into a polystyrene 384-well assay plate (BD Biosciences).
Compound solutions (8 μL/well) at various concentrations (0-300 μM) were added to the assay plate (columns 5-24). Compound solution contains 30 mM glycylglycine, pH 7.3, 40 mM KCl, 20 mM MgCl2, 9.2% DMSO, with (columns 15-24) or without (columns 5-14) 20 mM glucose 6-phosphate.
Enzyme solution (12 μL/well) containing glycogen synthase (16.88 μg/ml), pyruvate kinase (0.27 mg/ml), lactate dehydrogenase (0.27 mg/ml) in 50 mM Tris-HCl, pH 8.0, 27 mM DTT and bovine serum albumin (BSA, 0.2 mg/ml) was added to the assay plate (columns 3-24). As a blank control, enzyme solution without glycogen synthase was added into the top half wells of columns 1-2. To the bottom half wells of columns 1-2 were added a known activator, glucose 6-phosphate (at final concentration 5 mM) in addition to the enzyme solution. The reaction mixture was incubated at room temperature. The assay plate was then read for absorbance at 340 nm on an Envision reader every 3 minutes up to a total of 15 minutes.
The enzyme activity (with or without compound) was calculated by the reaction rate and represented by the optical density change (δOD) per minute. Percent stimulation of glycogen synthase activity by a compound at various concentrations was calculated by the following formula: % stimulation=100*Rs/Rt,
wherein Rs is the reaction rate of the enzyme in the presence of compound and Rt is the reaction rate of the enzyme in the absence of compound.
SC200 is defined as the compound concentration that is needed to stimulate 200% of the enzyme activity. EC50 is defined as the compound concentration that is needed to give 50% maximum activation.

Structure (SMILES) | EC50 [µM] | GS SC200 [µM]
COc1cc(F)c(F)cc1-c1ccc(OCc2cccc3[nH]ncc23)cc1 [Example 1, 4-(4′,5′-Difluoro-2′-methoxy-biphenyl-4-yloxymethyl)-1H-indazole] | 6.56 | 4.57
COc1cc(F)c(F)cc1-c1ccc(OCc2cccc3c2cnn3CCC(=O)O)cc1 [Example 2, 3-[4-(4′,5′-Difluoro-2′-methoxy-biphenyl-4-yloxymethyl)-indazol-1-yl]-propionic acid] | 26 | 5.52
COc1cc(F)c(F)cc1-c1ccc(OCc2ccc3cn[nH]c3c2)cc1 [Example 3, 6-(4′,5′-Difluoro-2′-methoxy-biphenyl-4-yloxymethyl)-1H-indazole] | 6 | 3.92
COc1cc(F)c(F)cc1-c1ccc(OCc2ccc3cnn(CC(=O)O)c3c2)cc1 [Example 4, [6-(4′,5′-Difluoro-2′-methoxy-biphenyl-4-yloxymethyl)-indazol-1-yl]-acetic acid] | 7 | 2.56
COc1cc(F)c(F)cc1-c1ccc(OCc2ccc3cnn(CCC(=O)O)c3c2)cc1 [Example 5, 3-[6-(4′,5′-Difluoro-2′-methoxy-biphenyl-4-yloxymethyl)-indazol-1-yl]-propionic acid] | 1.43 | 0.28
COc1cc(F)c(F)cc1-c1ccc(OCc2ccc3cc[nH]c3c2)cc1 [Example 6, 6-(4′,5′-difluoro-2′-methoxy-biphenyl-4-yloxymethyl)-1H-indole] | 5.37 | 5.3
COc1cc(F)c(F)cc1-c1ccc(OCc2ccc3ccn(CCC(=O)O)c3c2)cc1 [Example 7, 3-[6-(4′,5′-Difluoro-2′-methoxy-biphenyl-4-yloxymethyl)-indol-1-yl]-propionic Acid] | 3 | 0.6
COc1cc(F)c(F)cc1-c1ccc(OCc2ccc3ccn(CC(=O)O)c3c2)cc1 [Example 8, [6-(4′,5′-Difluoro-2′-methoxy-biphenyl-4-yloxymethyl)-indol-1-yl]-Acetic Acid] | 5.16 | 2
COc1cc(F)c(F)cc1-c1ccc(OCc2ccc3ccn(C(C)CC(=O)O)c3c2)cc1 (stereo not shown) [Example 9, 3-[6-(4′,5′-Difluoro-2′-methoxy-biphenyl-4-yloxymethyl)-indol-1-yl]-butyric Acid] | 2.01 | 0.41
COc1cc(F)c(F)cc1-c1ccc(OCc2cccc3[nH]ccc23)cc1 [Example 10, 4-(4′,5′-Difluoro-2′-methoxy-biphenyl-4-yloxymethyl)-1H-indole] | 3.88 | 2.86
COc1cc(F)c(F)cc1-c1ccc(OCc2cccc3c2ccn3C(=O)CCC(=O)O)cc1 [Example 11, 4-[4-(4′,5′-Difluoro-2′-methoxy-biphenyl-4-yloxymethyl)-indol-1-yl]-4-oxo-butyric acid] | 2.46 | 0.44
COc1cc(F)c(F)cc1-c1ccc(OCc2cccc3c2ccn3C(=O)CC(C)(C)C(=O)O)cc1 [Example 12, 4-[4-(4′,5′-Difluoro-2′-methoxy-biphenyl-4-yloxymethyl)-indol-1-yl]-2,2-dimethyl-4-oxo-butyric acid] | 3.04 | 1.19
COc1cc(F)c(F)cc1-c1ccc(OCc2cccc3c2ccn3CC(=O)O)cc1 [Example 13, [4-(4′,5′-Difluoro-2′-methoxy-biphenyl-4-yloxymethyl)-indol-1-yl]-acetic acid] | 3.12 | 0.43
COc1cc(F)c(F)cc1-c1ccc(OCc2cccc3c2ccn3CCC(=O)O)cc1 [Example 14, 3-[4-(4′,5′-Difluoro-2′-methoxy-biphenyl-4-yloxymethyl)-indol-1-yl]-propionic acid] | 5.49 | 1.46
COc1cc(F)c(F)cc1-c1ccc(OCc2cccc3c2ccn3C(C)CC(=O)O)cc1 (stereo not shown) [Example 15, 3-[4-(4′,5′-Difluoro-2′-methoxy-biphenyl-4-yloxymethyl)-indol-1-yl]-butyric acid] | 6.67 | 2.29
COc1cc(F)c(F)cc1-c1ccc(OCc2ccc3[nH]nc(N)c3c2)cc1 [Example 16, 5-(4′,5′-Difluoro-2′-methoxy-biphenyl-4-yloxymethyl)-1H-indazol-3-ylamine] | 2.79 | 0.6
Cn1nc(N)c2cc(COc3ccc(-c4cc(F)c(F)cc4F)cc3)ccc21 [Example 17, Methyl-5-(2′,4′,5′-trifluoro-biphenyl-4-yloxymethyl)-1H-indazol-3-ylamine] | 18.5 | 3.9
